This passage reports IC50 results from patent US20250361230A1, “LATS Inhibitors and Uses Thereof” (The USA, as Represented by the Secretary, Dept. of Heath …, priority 2022, published 2025).

Common to all, as to type: biochemical
One experiment has as its target AKT (Homo sapiens, UniProt P31749). Nature of the experiment: RBC HotSpot kinase assay (33P-ATP, P81 filter-binding), AKT. The following applies: read-out: AKT IC50. Here is the method: (§1) Biochemical kinase inhibitory data was obtained for various exemplary compounds prepared according to the above.
(§2) The reagents used are as follows: Base Reaction buffer; 20 mM Hepes (pH 7.5), 10 mM MgCl2, 1 mM EGTA, 0.01% Brij35, 0.02 mg/ml BSA, 0.1 mM Na3VO4, 2 mM DTT, […]. Required cofactors were added individually to each kinase reaction.
(§3) The reaction procedure was as follows: • 1) Substrates were prepared in freshly prepared Reaction Buffer. • 2) Any required cofactors were delivered to the substrate solution above. • 3) Kinase was delivered into the substrate solution and gently mixed. • 4) Compounds were delivered in 100% DMSO into the kinase reaction mixture by Acoustic technology (Echo550; nanoliter range), followed by incubation for 20 min at room temp. • 5) ^33P-ATP was delivered into the reaction mixture to initiate the reaction. • 6) The mixture was incubated for 2 hours at room temperature. • 7) Kinase activity was detected by P81 filter-binding method.
(§4) Using the above functional assay, the inhibitory activity of the compounds for LATS1/2 versus AKT was characterized. The assays were typically run in a 10-point curve, in singlet, to produce a titration curve from which an IC50 value was obtained.
(§5) The reagents used are as follows: Base Reaction buffer; 20 mM Hepes (pH 7.5), 10 mM MgCl2, 1 mM EGTA, 0.01% Brij35, 0.02 mg/ml BSA, 0.1 mM Na3VO4, 2 mM DTT, 1% DMSO. Required cofactors were added individually to each kinase reaction.
(§6) Biochemical kinase inhibitory data was obtained for various exemplary compounds prepared according to the above in accordance with the protocols described in Examples 4 and 8. All biological activities are IC50, in nM.

The target of another experiment is T1, LATS1 (Homo sapiens, UniProt O95835).
T1 sequence (O95835 1-1130): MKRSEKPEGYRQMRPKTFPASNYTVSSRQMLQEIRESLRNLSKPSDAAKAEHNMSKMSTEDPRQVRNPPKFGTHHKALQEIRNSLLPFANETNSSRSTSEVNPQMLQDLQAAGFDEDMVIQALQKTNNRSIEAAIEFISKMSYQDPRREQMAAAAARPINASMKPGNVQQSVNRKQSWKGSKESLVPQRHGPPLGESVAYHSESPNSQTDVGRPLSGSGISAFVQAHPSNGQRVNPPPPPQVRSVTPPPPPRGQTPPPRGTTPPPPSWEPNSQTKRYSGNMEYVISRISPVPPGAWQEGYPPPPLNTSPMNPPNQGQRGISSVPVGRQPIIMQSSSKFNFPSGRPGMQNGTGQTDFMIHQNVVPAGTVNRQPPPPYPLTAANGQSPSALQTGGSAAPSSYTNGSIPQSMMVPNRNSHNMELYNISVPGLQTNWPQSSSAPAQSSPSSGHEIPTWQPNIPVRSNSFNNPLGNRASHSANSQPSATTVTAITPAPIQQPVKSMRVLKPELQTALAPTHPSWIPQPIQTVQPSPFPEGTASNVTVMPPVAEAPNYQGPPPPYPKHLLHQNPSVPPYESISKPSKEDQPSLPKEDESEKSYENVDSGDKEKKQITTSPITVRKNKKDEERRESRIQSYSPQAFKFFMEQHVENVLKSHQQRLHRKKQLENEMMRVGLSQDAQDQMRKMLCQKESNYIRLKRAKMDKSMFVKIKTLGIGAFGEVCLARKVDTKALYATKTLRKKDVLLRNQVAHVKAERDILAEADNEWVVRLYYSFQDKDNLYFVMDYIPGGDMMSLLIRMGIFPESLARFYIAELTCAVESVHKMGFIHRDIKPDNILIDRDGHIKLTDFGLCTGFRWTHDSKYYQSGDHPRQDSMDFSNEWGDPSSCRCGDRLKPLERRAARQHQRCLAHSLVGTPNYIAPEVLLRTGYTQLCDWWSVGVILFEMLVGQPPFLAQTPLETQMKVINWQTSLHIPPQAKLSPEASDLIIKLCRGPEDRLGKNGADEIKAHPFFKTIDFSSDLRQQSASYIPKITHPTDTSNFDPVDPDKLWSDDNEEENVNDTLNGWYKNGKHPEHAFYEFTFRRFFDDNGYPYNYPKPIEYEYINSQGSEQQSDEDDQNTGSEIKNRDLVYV
Nature of the experiment: RBC HotSpot kinase assay (33P-ATP, P81 filter-binding), LATS1. The following applies: read-out: LATS1 IC50. Here is the method:
as §1, §2, §3, §4, §5, §6

The next experiment deals with T2, LATS2 (Homo sapiens, UniProt Q9NRM7).
T2 sequence (Q9NRM7 1-1088): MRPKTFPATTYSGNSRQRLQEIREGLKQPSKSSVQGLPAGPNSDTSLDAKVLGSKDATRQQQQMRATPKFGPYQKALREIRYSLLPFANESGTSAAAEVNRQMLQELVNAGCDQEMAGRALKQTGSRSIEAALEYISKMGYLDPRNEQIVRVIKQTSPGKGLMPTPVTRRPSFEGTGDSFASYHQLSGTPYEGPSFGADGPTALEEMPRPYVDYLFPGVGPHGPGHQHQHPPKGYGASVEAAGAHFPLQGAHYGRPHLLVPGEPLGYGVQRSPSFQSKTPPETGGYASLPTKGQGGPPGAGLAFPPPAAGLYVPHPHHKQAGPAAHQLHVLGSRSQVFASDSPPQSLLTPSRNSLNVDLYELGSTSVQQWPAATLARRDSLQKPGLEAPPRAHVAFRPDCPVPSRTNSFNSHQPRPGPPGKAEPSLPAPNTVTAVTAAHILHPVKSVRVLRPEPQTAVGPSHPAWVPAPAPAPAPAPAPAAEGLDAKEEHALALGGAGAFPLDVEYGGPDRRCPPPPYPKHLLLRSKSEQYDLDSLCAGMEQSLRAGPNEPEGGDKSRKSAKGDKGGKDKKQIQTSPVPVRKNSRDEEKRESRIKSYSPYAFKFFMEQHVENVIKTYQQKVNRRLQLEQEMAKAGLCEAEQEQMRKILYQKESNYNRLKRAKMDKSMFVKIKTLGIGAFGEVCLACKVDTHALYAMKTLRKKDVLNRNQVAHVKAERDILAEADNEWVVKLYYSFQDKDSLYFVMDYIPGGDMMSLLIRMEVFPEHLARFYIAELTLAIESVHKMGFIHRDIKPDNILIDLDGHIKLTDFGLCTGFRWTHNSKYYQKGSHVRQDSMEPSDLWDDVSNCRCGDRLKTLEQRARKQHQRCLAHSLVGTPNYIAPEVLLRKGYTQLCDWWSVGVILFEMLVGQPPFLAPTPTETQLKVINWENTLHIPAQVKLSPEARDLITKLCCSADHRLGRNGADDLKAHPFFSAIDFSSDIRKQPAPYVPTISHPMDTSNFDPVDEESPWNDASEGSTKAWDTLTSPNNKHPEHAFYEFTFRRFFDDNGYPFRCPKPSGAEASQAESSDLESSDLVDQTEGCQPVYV
Nature of the experiment: RBC HotSpot kinase assay (33P-ATP, P81 filter-binding), LATS2. The settings on record: read-out: LATS2 IC50. How it is done: as §1, §2, §3, §4, §5, §6

The mark [1] stands for this setting: Table 28, biochemical kinase assay.

Usually pIC50 stands for the IC50 on a negative log10 scale, so that one unit is a factor of ten.

pIC50: −log10 of the molar value. Where two headings read alike, the source gives them in different places.

Sequence of AKT (P31749 whole entry): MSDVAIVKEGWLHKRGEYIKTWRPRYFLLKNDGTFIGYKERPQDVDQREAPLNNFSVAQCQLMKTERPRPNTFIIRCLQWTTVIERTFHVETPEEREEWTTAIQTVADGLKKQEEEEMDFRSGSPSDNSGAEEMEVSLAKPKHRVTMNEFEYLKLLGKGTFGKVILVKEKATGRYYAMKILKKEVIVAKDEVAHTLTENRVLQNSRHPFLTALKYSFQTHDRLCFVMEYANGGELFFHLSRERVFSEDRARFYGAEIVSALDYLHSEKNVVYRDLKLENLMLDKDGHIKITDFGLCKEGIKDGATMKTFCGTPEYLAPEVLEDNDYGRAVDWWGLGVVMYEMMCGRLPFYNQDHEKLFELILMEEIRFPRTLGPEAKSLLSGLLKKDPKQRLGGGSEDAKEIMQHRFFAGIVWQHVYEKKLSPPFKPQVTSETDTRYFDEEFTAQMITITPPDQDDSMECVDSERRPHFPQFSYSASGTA

Regarding `Cc1cc(-c2ccnc3[nH]cc(C#N)c23)cc(F)c1[C@@]1(O)[C@H](C)CN(C(=O)[C@H](N)CO)C[C@@H]1C` (single isomer, unassigned) [Compound 2006], the figures for the pIC50 on AKT (biochemical kinase inhibition), at LATS1 (biochemical kinase inhibition) and on LATS2 (biochemical kinase inhibition) were 6.90, 8.44 and 8.85, respectively.

`Cc1c[nH]c2nccc(-c3ccc([C@@]4(O)[C@H](C)CNC[C@@H]4C)cn3)c12` [Compound 3, (3R,4s,5S)-3,5-dimethyl-4-(6-(3-methyl-1H-pyrrolo[2,3-b]pyridin-4-yl)pyridin-3-yl)piperidin-4-ol]: the values for the pIC50 at AKT (setting [1]), at LATS1 (setting [1]) and at LATS2 (setting [1]) were 5.36, 7.14 and 7.30, respectively.

For the compound `COc1cc(-c2ccnc3[nH]cc(F)c23)ncc1[C@@]1(O)[C@H](C)CNC[C@@H]1C` [Compound 4, (3R,4s,5S)-4-(6-(3-fluoro-1H-pyrrolo[2,3-b]pyridin-4-yl)-4-methoxypyridin-3-yl)-3,5-dimethylpiperidin-4-ol], the pIC50 on AKT (setting [1]) was 5.38; at LATS1 (setting [1]) it was 7.74; at LATS2 (setting [1]), 7.25.

Turning to `C[C@@H]1CN(C)C[C@H](C)[C@@]1(O)c1ccc(-c2ccnc3[nH]cc(F)c23)cc1Cl` [Compound 5, (3S,4s,5R)-4-(2-chloro-4-(3-fluoro-1H-pyrrolo[2,3-b]pyridin-4-yl)phenyl)-1,3,5-trimethylpiperidin-4-ol], the pIC50 at AKT (setting [1]) was 7.17; on LATS1 (setting [1]), 8.04; at LATS2 (setting [1]), 7.90.

As for `CC(C)N1C[C@@H](C)[C@](O)(c2ccc(-c3ccnc4[nH]cc(F)c34)cc2Cl)[C@@H](C)C1` [Compound 6, (3S,4s,5R)-4-(2-chloro-4-(3-fluoro-1H-pyrrolo[2,3-b]pyridin-4-yl)phenyl)-1-isopropyl-3,5-dimethylpiperidin-4-ol], the figures for the pIC50 at AKT (setting [1]), on LATS1 (setting [1]) and on LATS2 (setting [1]) were 7.04, 8.89 and 8.85, respectively.

In the case of `Cc1nc(-c2ccnc3[nH]cc(F)c23)ccc1[C@@]1(O)[C@H](C)CNC[C@@H]1C` [Compound 10, (3S,4s,5R)-4-(6-(3-fluoro-1H-pyrrolo[2,3-b]pyridin-4-yl)-2-methylpyridin-3-yl)-3,5-dimethylpiperidin-4-ol], the results for the pIC50 at AKT (setting [1]), at LATS1 (setting [1]) and on LATS2 (setting [1]) were 5.76, 7.63 and 7.69, respectively.

On to `C[C@@H]1CNC[C@H](C)[C@@]1(O)c1ccc(-c2ccnc3[nH]cc(F)c23)cc1C(F)(F)F` [Compound 11, (3S,4s,5R)-4-(4-(3-fluoro-1H-pyrrolo[2,3-b]pyridin-4-yl)-2-(trifluoromethyl)phenyl)-3,5-dimethylpiperidin-4-ol], for which the pIC50 at AKT (setting [1]) was 6.84; on LATS1 (setting [1]), 7.95; on LATS2 (setting [1]), 7.97.

In the case of `Cc1cc(-c2ccnc3[nH]cc(F)c23)cc(Cl)c1[C@@]1(O)[C@H](C)CNC[C@@H]1C` [Compound 12, (3S,4s,5R)-4-(2-chloro-4-(3-fluoro-1H-pyrrolo[2,3-b]pyridin-4-yl)-6-methylphenyl)-3,5-dimethylpiperidin-4-ol], the pIC50 was 8.00 at AKT (setting [1]), 6.70 on LATS1 (setting [1]) and 7.09 on LATS2 (setting [1]).

On to `Cc1c[nH]c2nccc(-c3cc(F)c([C@@]4(O)[C@H](C)CNC[C@@H]4C)c(F)c3)c12` [Compound 15], for which the pIC50 is 6.44 at AKT (setting [1]), 8.07 on LATS1 (setting [1]) and 8.14 at LATS2 (setting [1]).

As for `Cc1cc(-c2ccnc3[nH]cc(F)c23)cc(F)c1[C@@]1(O)[C@H](C)CNC[C@@H]1C` [Compound 16, (3S,4s,5R)-4-(2-fluoro-4-(3-fluoro-1H-pyrrolo[2,3-b]pyridin-4-yl)-6-methylphenyl)-3,5-dimethylpiperidin-4-ol], the pIC50 was 6.70 at AKT (setting [1]), 8.15 at LATS1 (setting [1]) and 8.00 at LATS2 (setting [1]).

As to `C[C@@H]1CN(Cc2ccncc2)C[C@H](C)[C@@]1(O)c1c(F)cc(-c2ccnc3[nH]cc(F)c23)cc1F` [Compound 19, (3S,4s,5R)-4-(2,6-difluoro-4-(3-fluoro-1H-pyrrolo[2,3-b]pyridin-4-yl)phenyl)-3,5-dimethyl-1-(pyridin-4-ylmethyl)piperidin-4-ol], the pIC50 was 5.99 at AKT (setting [1]), 7.96 at LATS1 (setting [1]) and 8.04 at LATS2 (setting [1]).

For `C[C@@H]1CN(C2CCC2)C[C@H](C)[C@@]1(O)c1ccc(-c2ccnc3[nH]cc(F)c23)cc1Cl` [Compound 20, (3S,4s,5R)-4-(2-chloro-4-(3-fluoro-1H-pyrrolo[2,3-b]pyridin-4-yl)phenyl)-1-cyclobutyl-3,5-dimethylpiperidin-4-ol], the pIC50 was 6.71 at AKT (setting [1]), 8.59 on LATS1 (setting [1]) and 8.57 on LATS2 (setting [1]).

Consider `C[C@@H]1CN(C2COC2)C[C@H](C)[C@@]1(O)c1ccc(-c2ccnc3[nH]cc(F)c23)cc1Cl` [Compound 21, (3S,4s,5R)-4-(2-chloro-4-(3-fluoro-1H-pyrrolo[2,3-b]pyridin-4-yl)phenyl)-3,5-dimethyl-1-(oxetan-3-yl)piperidin-4-ol], for which the pIC50 was 6.60 at AKT (setting [1]), 8.52 on LATS1 (setting [1]) and 8.55 at LATS2 (setting [1]).

Regarding `C[C@@H]1CN(C2CCS(=O)(=O)CC2)C[C@H](C)[C@@]1(O)c1ccc(-c2ccnc3[nH]cc(F)c23)cc1Cl` [Compound 26, 4-((3S,4s,5R)-4-(2-chloro-4-(3-fluoro-1H-pyrrolo[2,3-b]pyridin-4-yl)phenyl)-4-hydroxy-3,5-dimethylpiperidin-1-yl)tetrahydro-2H-thiopyran 1,1-dioxide], the results for the pIC50 at AKT (setting [1]), at LATS1 (setting [1]) and on LATS2 (setting [1]) were 7.73, 9.14 and 9.29, respectively.
